According to US10919935B2, “Antimicrobial peptide derived from myxinidin peptide and uses thereof” (INDUSTRY-ACADEMIC COOPERATION FOUNDATION, CHOSUN UNIVERSITY, priority 2015, dated 2021):
Residues, ends and D or L forms follow the SMILES beside them.

How the values were obtained:
[1] = system: Staphylococcus aureus 3018; assay: Anti-microbial disk diffusion susceptibility test with gelatin; type: cell-based; conditions: 0.1% gelatin
Excerpt: (§1) FIGS. 4A to 4C show the results of determining the antimicrobial activity when the peptides of the present invention are admixed with gelatin used as a wound moisturizing agent. FIG. 4A: Determination of survival ratio of skin keratinocyte cells in accordance with a change in gelatin concentration; FIG. 4B: Measurement of minimum inhibitory concentration (MIC, μM) of the peptides for Staphylococcus aureus (S. aureus 3018), Acinetobacter baumannii (A. baumannii 719705), and Pseudomonas aeruginosa (P. aeruginosa 4076), in which the result is shown for different gelatin concentrations; FIG. 4C: Result of the anti-microbial disk diffusion susceptibility test carried out for Staphylococcus aureus (S. aureus 3018), Acinetobacter baumannii (A. baumannii 719705), and Pseudomonas aeruginosa (P. aeruginosa 4076), in which the result is shown for different peptide concentrations and also for the presence or absence of gelatin co-blending.
(§2) To specifically determine the antimicrobial activity at the time of mixing the synthetic peptide of the present invention with gelatin, myxinidin 2 and myxinidin 3 synthetic peptides were admixed with 0.1% gelatin. Furthermore, to determine the antimicrobial activity, a minimum inhibitory concentration measurement and an anti-microbial disk diffusion susceptibility test as an agar diffusion method were carried out for Acinetobacter baumannii, Pseudomonas aeruginosa, and Staphylococcus aureus.
(§3) Specifically, cultured Acinetobacter baumannii, Pseudomonas aeruginosa, and Staphylococcus aureus were diluted to a concentration of 2×10^5 cells/ml, admixed with a solution in which 0.1% gelatin is mixed with 1% agarose, and cultured. To see the antimicrobial activity, the peptide was applied on a 6 mm round disk, in which the peptide was applied at various different concentrations, and the diffusion level was measured.

[2] = system: Acinetobacter baumannii 719705; assay: as above; type: cell-based; conditions: 0.1% gelatin
Excerpt: as §1, §2, §3

[3] = system: Pseudomonas aeruginosa 4076; assay: as above; type: cell-based; conditions: 0.1% gelatin
Excerpt: as §1, §2, §3

TNF-α, IL-6, and IL-8 = assay: ELISA of cytokines and chemokine in infected skin keratinocyte cells; type: cell-based, human; conditions: keratinocytes infected with S. aureus, A. baumannii or P. aeruginosa; peptide at 2 times MIC
Procedure: To specifically determine the anti-inflammatory effect of the synthetic peptide of the present invention, infection with Acinetobacter baumannii, Pseudomonas aeruginosa, or Staphylococcus aureus and a treatment with myxinidin 2 and myxinidin 3 synthetic peptides were carried out, and interleukin-6 (IL-6) and interleukin-8 (IL-8), which are a cytokine and a chemokine, and tumor necrosis factor alpha (TNF-α) were analyzed by enzyme-linked immunosorbent assay.
Specifically, interleukin-6, interleukin-8, and tumor necrosis factor-α were analyzed by a human immune assay kit. Human skin keratinocyte cells were infected with Staphylococcus aureus, Acinetobacter baumannii, or Pseudomonas aeruginosa, which are the bacterial strain having tolerance to antibiotics, followed by a treatment with the peptide at a concentration that is 2 times higher than the minimum inhibitory concentration to have a reaction. After that, only the supernatant was collected and subjected to an enzyme-linked immunosorbent assay.

[4] = system: skin wound of mouse infected with bacteria having tolerance to antibiotics; assay: Healing of infected skin wound of mouse; type: in vivo, BALB/c female mouse; conditions: 5 mm biopsy punch wound, peptide at 2 times MIC, observed for 2 weeks
Excerpt: Healing process of skin wound of a mouse induced by the synthetic peptide of the present invention, in which the mouse has been infected with Acinetobacter baumannii, Pseudomonas aeruginosa, or Staphylococcus aureus as the bacterial strain having tolerance to antibiotics, was observed during different time periods. The animal tissue was stained by hematoxylin and eosin (H & E) staining to examine the skin tissue having inflammation.
Specifically, a wound was created in a 6 week to 7 week old BALB/c female mouse using 5 mm biopsy punch. Then, the mouse was infected with Staphylococcus aureus, Acinetobacter baumannii, or Pseudomonas aeruginosa, which are the bacterial strain having tolerance to antibiotics, followed by administration of the peptide at a concentration that is 2 times higher than the minimum inhibitory concentration.

[5] = system: human skin keratinocyte cells infected with bacteria having tolerance to antibiotics; assay: Migration of infected skin keratinocyte cells (scrape wound); type: cell-based; conditions: peptide at 2 times MIC
Excerpt: To determine the wound healing effect of the peptide of the present invention by activating migration of skin keratinocyte cells infected with Acinetobacter baumannii, Pseudomonas aeruginosa, or Staphylococcus aureus, which are the bacterial strain having tolerance to antibiotics, the adhered cells were damaged to have an infection followed by a treatment with myxinidin 2 or myxinidin 3. The resulting cells were then observed under a microscope.
Specifically, human skin keratinocyte cells were cultured at 1×10^6 cells/ml, and then scraped off using a tip. Then, the cells were infected with Staphylococcus aureus, Acinetobacter baumannii, or Pseudomonas aeruginosa, which are the bacterial strain having tolerance to antibiotics, followed by a treatment with the peptide at a concentration that is 2 times higher than the minimum inhibitory concentration. Cell migration was then observed under a microscope.

[6] = system: membrane of Escherichia coli; assay: Confocal microscopy analysis with PI (Propidium iodide); type: cell-based; conditions: reaction for 10 minutes
Procedure: (§4) Specifically, myxinidin 2 or myxinidin 3, which have been synthesized in the above Example 1, was treated with PI (Propidium Iodide) solution and Escherichia coli or Staphylococcus aureus followed by reaction for 10 minutes. After the reaction, only pure Escherichia coli were collected by centrifuge (4,000 rpm) followed by removal of supernatant. Then, by adding 50 μl of physiological saline (PBS), cell aggregate was removed. By using LSM510 confocal microscope, the working mechanism of the peptide on Escherichia coli and Staphylococcus aureus membrane was determined.

[7] = system: membrane of Staphylococcus aureus; assay: as above; type: cell-based; conditions: reaction for 10 minutes
Procedure: as §4

[8] = infection with Acinetobacter baumannii
[9] = infection with Pseudomonas aeruginosa
[10] = infection with Staphylococcus aureus

SMILES | Antimicrobial activity with gelatin (disk diffusion) [1] | Antimicrobial activity with gelatin (disk diffusion) [2] | Antimicrobial activity with gelatin (disk diffusion) [3] | Expression of cytokine and chemokine (IL-6, TNF-α, IL-8; ELISA) (TNF-α, IL-6, and IL-8) | Wound healing of infected mouse skin wound [4] | Cell migration / regeneration of scraped keratinocytes [5, 8] | Cell migration / regeneration of scraped keratinocytes [5, 9] | Cell migration / regeneration of scraped keratinocytes [5, 10] | Activity on membrane (PI, confocal microscopy) [6] | Activity on membrane (PI, confocal microscopy) [7]
CC[C@H](C)[C@H](NC(=O)[C@H](Cc1c[nH]c2ccccc12)NC(=O)[C@H](CCCCN)NC(=O)[C@@H](NC(=O)[C@@H](N)CCCCN)[C@@H](C)CC)C(=O)N[C@@H](CC(C)C)C(=O)N[C@@H](CCCCN)C(=O)N[C@@H](Cc1ccc(O)cc1)C(=O)N[C@@H](Cc1c[nH]c2ccccc12)C(=O)N[C@@H](CCCCN)C(=O)N[C@@H](Cc1c[nH]c2ccccc12)C(=O)N[C@@H](CO)C(N)=O [Myxinidin 2, KIKWILKYWKWS-NH2] (H-KIKWILKYWKWS-NH2; N-terminus assumed) | a similar antimicrobial activity was maintained | the antimicrobial activity was maintained | exhibited the antimicrobial activity | has decreased | showed epidermalization and wound maturation | proliferation with no cell death | fast regeneration rate | Proliferation with no cell death | work on the membrane of Escherichia coli and Staphylococcus aureus to show PI | work on the membrane of Escherichia coli and Staphylococcus aureus to show PI
CC[C@H](C)[C@H](NC(=O)[C@H](Cc1c[nH]c2ccccc12)NC(=O)[C@H](CCCNC(=N)N)NC(=O)[C@@H](NC(=O)[C@@H](N)CCCNC(=N)N)[C@@H](C)CC)C(=O)N[C@@H](CC(C)C)C(=O)N[C@@H](CCCNC(=N)N)C(=O)N[C@@H](Cc1ccc(O)cc1)C(=O)N[C@@H](Cc1c[nH]c2ccccc12)C(=O)N[C@@H](CCCNC(=N)N)C(=O)N[C@@H](Cc1c[nH]c2ccccc12)C(=O)N[C@@H](CO)C(N)=O [Myxinidin 3, RIRWILRYWRWS-NH2] (H-RIRWILRYWRWS-NH2; N-terminus assumed) | a similar antimicrobial activity was maintained | exhibited a slightly higher antimicrobial activity when the treatment is made only with the peptide | exhibited the antimicrobial activity | has decreased | showed epidermalization and wound maturation | fast regeneration rate | proliferation with no cell death | more rapid regeneration | work on the membrane of Escherichia coli and Staphylococcus aureus to show PI | work on the membrane of Escherichia coli and Staphylococcus aureus to show PI
